# Reference: patent US20200166517A1, “Screening Method for Identification of Neuroprotective Compounds” (Temple University-Of The Commonwealth System of Higher …, priority 2017, published 2020)
# Entries after “also recorded” stand apart in the source; their conditions may differ.
# Key:
# Format in all cases: cell-based
# [1] = tested on: HEK293T cells; assay: mCherry-NLS×3 expression and DAPI nuclear signal (toxicity / non-specific effect readout of the screen); settings: HEK293T co-transfected with DLK-GFP plus mCherry-NLS×3
# Experimental: (§1) FIG. 7A depicts HEK293T cells co-transfected with DLK-GFP plus mCherry-NLS×3 and then treated with 2BP or vehicle were fixed to detect GFP, mCherry and the nuclear marker DAPI. […] FIG. 7B depicts design of the high-throughput screen for compounds that inhibit DLK-GFP puncta formation. FIG. 7C depicts compounds from the Prestwick Chemical Library™, which were spotted onto 96 well plates at 10 mM per compound in DMSO and diluted in DMEM prior to adding to transfected cells in duplicate at a final concentration of 10 micromolar (similar to the flow chart in FIG. 7B). 16 h later, cells were fixed in 4% PFA and stained with DAPI. High-content imaging was performed using an ImageXPress Image Analysis ‘TransFluor’ and Multi-wavelength scoring (MWS) modules. Data are plotted as total number of puncta (TransFluor Module) per total NLS (MWS module) for each compound. Drugs that decreased the nuclear NLS and/or DAPI markers below 3 times the […] were excluded due to likely toxicity or non-specific effects (plotted in grey). ‘Hits’ were drugs characterised as decreasing all ‘puncta’ readouts by more than 3 times the SD and included in 2 replicates.
# [2] = target: T1, DLK-GFP (Homo sapiens, UniProt Q12852); assay: DLK-GFP puncta / membrane localization in transfected HEK293T cells (high-content imaging, ImageXpress)
# T1 sequence (Q12852 1-892 isoform Q12852-2): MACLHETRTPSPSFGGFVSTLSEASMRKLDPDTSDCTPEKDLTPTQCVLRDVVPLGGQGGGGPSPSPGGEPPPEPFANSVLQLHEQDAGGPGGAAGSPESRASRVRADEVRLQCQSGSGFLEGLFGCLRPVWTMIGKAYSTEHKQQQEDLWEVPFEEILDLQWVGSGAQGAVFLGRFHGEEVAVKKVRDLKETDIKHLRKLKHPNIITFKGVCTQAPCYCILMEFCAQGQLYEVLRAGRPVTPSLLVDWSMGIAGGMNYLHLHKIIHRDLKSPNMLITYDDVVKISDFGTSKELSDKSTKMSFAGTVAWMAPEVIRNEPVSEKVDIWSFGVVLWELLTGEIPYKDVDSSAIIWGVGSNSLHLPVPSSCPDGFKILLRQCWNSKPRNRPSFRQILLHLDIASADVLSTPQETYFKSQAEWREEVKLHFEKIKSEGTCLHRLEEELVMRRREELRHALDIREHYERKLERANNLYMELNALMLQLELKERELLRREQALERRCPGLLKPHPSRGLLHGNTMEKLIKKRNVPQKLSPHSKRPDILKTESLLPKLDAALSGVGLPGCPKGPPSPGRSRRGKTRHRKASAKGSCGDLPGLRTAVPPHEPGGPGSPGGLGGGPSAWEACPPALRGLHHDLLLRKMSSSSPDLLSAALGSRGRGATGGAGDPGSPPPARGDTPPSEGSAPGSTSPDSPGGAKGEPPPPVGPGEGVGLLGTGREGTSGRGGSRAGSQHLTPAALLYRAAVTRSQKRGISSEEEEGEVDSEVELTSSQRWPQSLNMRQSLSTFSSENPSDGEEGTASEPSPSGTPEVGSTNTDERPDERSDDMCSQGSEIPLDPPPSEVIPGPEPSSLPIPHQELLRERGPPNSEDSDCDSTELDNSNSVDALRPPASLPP
# Experimental: FIG. 3A: HEK293T cells were transfected with wtDLK-GFP or DLK-CS-GFP and treated 4 h later with 2-Br or vehicle. Top: Live images of GFP fluorescence, acquired 8 h post-transfection. […] FIG. 3B: A subset of cells from FIG. 3A were fixed and immunostained with anti-GFP antibody. Images of GFP fluorescence (n=5 per condition) were analyzed by ImageXpress software. Palmitoylation-dependent differences in number of DLK-GFP puncta are readily detectable.
# FIG. 6A depicts HEK293T cells transiently expressing DLK-GFP, fixed and immunostained with antibodies to detect GFP and the Golgi marker GM130. FIG. 6B depicts HEK293T cells, transfected as in FIG. 6A to express either wild type DLK-GFP (DLK-GFP) or a DLK palmitoylation site mutant (C127S-DLK-GFP). […] FIG. 6C depicts results from an experiment in which HEK293T cells were seeded into 12 wells of a 96-well plate and transfected with DLK-GFP and then treated with 2BP or vehicle (6 wells per condition). Cells were fixed in PFA and imaged using an ImageXpress High Content Imaging system to detect GFP signal. Assay quality was determined by calculating the z-prime (z′) for 6 determinations for each of the indicated conditions (z′=S/R, S=[(Mean of Vehicle treated−3×SD)−(Mean of 2BP−3×SD)], R=Vehicle Mean−2BP mean).
# as §1
# (§2) FIG. 8A depicts an experiment in which HEK293T cells transiently transfected with DLK-GFP and mCherry-NLS and subsequently incubated with the indicated concentrations of Ketoconazole or 20 μM 2BP 2 hours post-transfection for 16-18 h. Cells were fixed and stained with DAPI. Scale bar represents 50 μm. FIG. 8B depicts quantified DLK puncta/NLS and nuclear counts (DAPI) from cells transfected as in FIG. 8A and treated with the indicated concentrations of ketoconazole. FIG. 8C depicts an experiment in which transiently transfected HEK293T cells were prepared as in FIG. 8A and palmitoylation (HAM+) was detected using the ABE assay. HAM- sample was generated from an equal fraction of all conditions combined.
# In transfected HEK 293T cells, GFP-tagged wild type DLK (wtDLK-GFP) clearly localizes to intracellular membranes (FIG. 3, top). These membranes are distinct from the vesicles reported in neurons (likely due to different trafficking of DLK in non-neuronal cells) and instead overlap with Golgi markers, likely because many mammalian palmitoyl acyltransferases (PATs) localize to the Golgi (Levy, 2011; Ohno, 2006). […] In identically thresholded images, wtDLK-GFP puncta could be readily observed, that were absent in the 2-Br-treated and DLK-CS-GFP images (FIG. 3A, bottom). It was thus reasoned that this palmitoylation-dependent change in DLK localization should be quantifiable using high-content imaging software. […] High-content imaging detection is thus well suited to identify novel pharmacological inhibitors of DLK palmitoylation.
# [3] = target: T1, DLK-GFP; assay: Acyl-Biotin Exchange (ABE) palmitoylation assay, DLK-GFP in HEK293T cells
# Text: FIG. 4 depicts an orthogonal assay to confirm mechanism of action (MOA) of HTS Hits. HEK293T cells were transfected with wt-DLK-GFP or DLK-CS-GFP and palmitoyl-proteins were isolated by Acyl-Biotin Exchange (ABE). Palmitoyl-DLK is robustly detected in ABE fractions but no ABE signal is seen from cells treated with 2-Br, or if DLK's palmitoyl-site is mutated. DLK expressed similarly in all conditions. (Holland, 2016)
# as §2
# HEK293T cells were transiently transfected with FIG. 9A) DLK-GFP, FIG. 9B) GAP43-Myc, FIG. 9C) and untagged PSD95 and incubated with 20 μM 2BP, or with 2.5 μM or 5 μM ketoconazole 2 h post-transfection for 16-18 h. Palmitoylation was detected using the ABE assay (left) and quantified from n=4 determinations per condition (right). HAM- includes an equal fraction of all conditions combined. […]
# (§3) If changes in DLK localization observed by high-content imaging are indeed due to altered DLK palmitoylation then this should also be reflected in biochemical assays of DLK palmitoylation levels. Palmitoylation of numerous proteins, including DLK, has been previously monitored using a non-radioactive palmitoylation assay, Acyl-Biotin Exchange (ABE) (Holland, 2016; Thomas, 2012). […] WtDLK-GFP was robustly detected in ABE fractions but was absent from controls in which the essential ABE reagent hydroxylamine (NH2OH) was omitted (FIG. 4). […]
# [4] = tested on: JNK3 activation by wtDLK-GFP; assay: JNK3 activation by wtDLK-GFP in cotransfected HEK293T cells, detected by phosphoJNK antibody; settings: HEK293T cells expressing myc-JNK3 plus wtDLK-GFP; vs EtOH vehicle
# Experimental: FIG. 2A: HEK293T cells expressing myc-JNK3 plus wtDLK-GFP were treated with the palmitoylation inhibitor 2-Bromopalmitate (2-Br) or EtOH (vehicle). […] FIG. 2B: HEK293T cells were transfected with myc-JNK3 plus either wtDLK-GFP or a DLK palmitoyl site mutant (DLK-CS-GFP). Only wtDLK-GFP activates JNK3, as detected by phosphoJNK antibody.
# [5] = tested on: PSD95; assay: Acyl-Biotin Exchange (ABE) palmitoylation assay, untagged PSD95 in HEK293T cells; settings: 2.5 μM or 5 μM, 2 h post-transfection for 16-18 h, n=4; ANOVA p=0.0158
# Experimental: (§4) HEK293T cells were transiently transfected with FIG. 9A) DLK-GFP, FIG. 9B) GAP43-Myc, FIG. 9C) and untagged PSD95 and incubated with 20 μM 2BP, or with 2.5 μM or 5 μM ketoconazole 2 h post-transfection for 16-18 h. Palmitoylation was detected using the ABE assay (left) and quantified from n=4 determinations per condition (right). HAM- includes an equal fraction of all conditions combined. […] One-way ANOVA, Kruskal-Wallis post-hoc analysis; FIG. 9A) ANOVA p=0.0214, h=7.692, FIG. 9B) ANOVA not significant, FIG. 9C) ANOVA p=0.0158, h=8.290. Error bars represent SEM.
# as §3, with “2012). ABE uses an exchange of thioester-linked acyl modifications (i.e. palmitoylation), for biotin, with the resultant biotinylated proteins being affinity-purified from cell lysates using neutravidin-conjugated beads.” for “2012).”
# [6] = tested on: phospho-cJun; assay: DLK-mediated phospho-cJun activation after NGF withdrawal in DRG neurons (Western blot); settings: DRG neurons DIV 7, 2.5 μM overnight pretreatment, 2.5 h NGF withdrawal; Bonferroni post-test p<0.01
# Experimental: FIG. 10A depicts an experiment in which dorsal Root Ganglion (DRG) neurons were pretreated at 7 Days in vitro (DIV 7) with 2.5 μM Ketoconazole overnight or 20 μM 2BP for 2 h prior to a 2.5 h NGF withdrawal in presence of the indicated compound. Cells were lysed in SDS-PAGE loading buffer and levels of endogenous DLK, phospho-cJun and tubulin were detected by Western blot.
# FIG. 10B depicts quantification of phospho-cJun normalised to -NGF vehicle treated cells. Two-way ANOVA indicates significant effects of interaction (p=0.0071), NGF (p=0.0026) and Ketoconazole (p=0.0001). The effect of Ketoconazole in DRGs undergoing NGF withdrawal was also significant as determined by the Bonferroni post-test (p<0.01). Error bars represent SEM.
# [7] = tested on: GAP43-Myc; assay: Acyl-Biotin Exchange (ABE) palmitoylation assay, GAP43-Myc in HEK293T cells; settings: 2.5 μM or 5 μM, 2 h post-transfection for 16-18 h, n=4; ANOVA not significant
# Experimental: as §4
# as §3, with “2012). ABE uses an exchange of thioester-linked acyl modifications (i.e. palmitoylation), for biotin, with the resultant biotinylated proteins being affinity-purified from cell lysates using neutravidin-conjugated beads.” for “2012).”
"DLK-GFP puncta (DLK puncta/NLS), dose response ([2]; HEK293T, DLK-GFP and mCherry-NLS, compound added 2 hours post-transfection for 16-18 h)",Structure (SMILES),mCherry-NLS×3 expression and DAPI signal [1],DLK-GFP puncta ([2]; HEK293T co-transfected with DLK-GFP plus mCherry-NLS×3),Golgi-associated clusters of DLK-GFP ([2]; HEK293T transiently expressing DLK-GFP),"DLK localization quantified by ImageXpress 'TransFluor' module (number of DLK-GFP puncta) ([2]; HEK293T, fixed, anti-GFP immunostained, n=5 images per condition)","membrane-localized wtDLK-GFP puncta / DLK-GFP membrane association ([2]; HEK293T, treated 4 h post-transfection, imaged 8 h post-transfection, thresholded images)",palmitoyl-DLK signal in ABE fractions ([3]; HEK293T transfected with wtDLK-GFP),JNK3 activation (phosphorylation) by wtDLK-GFP [4],palmitoylation of PSD-95 (ABE) [5],phospho-cJun normalised to -NGF vehicle treated cells [6],"inhibition of DLK-GFP puncta formation (puncta per total NLS), rank in Prestwick Chemical Library screen ([2]; 10 micromolar final, duplicate, 16 h, 96-well)",palmitoylation of GAP-43 (ABE) [7],"palmitoylation of DLK (ABE) ([3]; 2.5 μM or 5 μM, 2 h post-transfection for 16-18 h, n=4, ANOVA p=0.0214)","DLK palmitoylation (ABE, HAM+), dose response ([3]; HEK293T, compound 2 hours post-transfection for 16-18 h)"
,"CCCCCCCCCCCCCCC(Br)C(=O)O (centres unmarked) [2-Br, 2-Bromopalmitate]",without affecting mCherry-NLS×3 expression or DAPI signal,reduces DLK-GFP puncta,diffuses the Golgi-associated clusters of DLK-GFP,dramatically alters DLK localization,completely disrupted DLK-GFP membrane association; also recorded: essentially absent,no ABE signal,blocks JNK3 activation; also recorded: prevented DLK-dependent phosphorylation of JNK3,,,,,,
decreases DLK-GFP puncta,CC(=O)N1CCN(c2ccc(OCC3COC(Cn4ccnc4)(c4ccc(Cl)cc4Cl)O3)cc2)CC1 (centres unmarked) [Ketoconazole],,,,,,,,significantly reduces palmitoylation of DLK and PSD-95,significantly decreases DLK-mediated phospho-cJun activation; also recorded: significant,most potent compound to inhibit DLK-GFP puncta formation,does not affect palmitoylation of GAP-43,significantly reduces palmitoylation of DLK,inhibits DLK palmitoylation in a dose dependent manner
